Assays:
[1] = test system: Hh signaling pathway (Gli1 mRNA) in C3H10T1/2 cells; assay: Gli1 mRNA down-regulation (qPCR) in OHC-stimulated C3H10T1/2 cells; assay type: cell-based, mouse; settings: for Gli1 mRNA (%): 5 μM with OHCs 5 μM; for Gli1 mRNA (%) / mrna remaining at 5 µM: 24 h, relative Gli1 mRNA levels compared to OHCs (set to 100%); for mrna remaining at 5 µM / IC50: Mus musculus; for mrna remaining at 5 µM: C3H 10T1/2, 5 μM with OHCs 5 μM; for IC50: C3H 10T1/2, mean ± SEM
Procedure: (§1) The VD3 analogues were initially assessed for their ability to inhibit the Hh signaling pathway by evaluating the effects on endogenous Gli1 mRNA levels at a single concentration (5 μM) co-administration of oxysterols (OHCs; 20(S)-hydroxycholesterol, 22(S)-hydroxycholesterol at 5 μM each) in C3H10T1/2 cells, an Hh-dependent mouse embryonic fibroblast (MEF) cell line. […] VD3 derivatives may retain some VDR agonistic activity, thereby compromising the selectivity of these compounds as Hh inhibitors. The selectivity profile of the analogues for Hh inhibition, compared to typical VDR activation, was assessed by measuring the ability to up-regulate Cyp24a1 mRNA levels in the same cellular system and by evaluating their binding to VDR using a fluorescence polarization-based competition assay (Table 1).
(§2) Mouse embryonic fibroblast cell line (C3H10T1/2, wild-type, VDR^−/−, SuFu^−/−), mouse keratinocyte cell line (ASZ001), and human embryonic kidney cell line (HEK293T) were purchased from China Center for Type Culture Collection (CCTCC; Wuhan, Hubei, China) and cultured under standard protocols. […] Therefore, they can be used to assess the inhibitory strength of the Hh signaling and the selectivity of the VDR signaling. VDR^−/− and SuFu^−/− C3H10T1/2 cells were used to study compounds selectivity for Hh and VDR signaling. If compounds regulate Hh signaling independently of VDR, their ability to down-regulate Gli1 mRNA expression should be abolished in SuFu^−/− C3H10T1/2 cells. […] The loss of Ptch in ASZ001 cells […], so down-regulating Gli1 reflects direct Smo inhibition by the compound. Comparing results from ASZ001 and C3H10T1/2 cells highlights the compound’s inhibition of the Hh signaling pathway.
(§3) RNA isolation in C3H10T1/2 cells was performed in 24-well plates (50,000 cells plated; TRIZOL Reagent); in ASZ001, cells were done in 35 mm dishes (300,000 cells plated; TRIZOL Reagent). cDNA synthesis was performed utilizing the SweScript All-in-One RT SuperMix Kit (Servicebio, Wuhan, China) per the manufacturer’s instructions on a BioRad S1000 Thermal Cycler (Hercules, CA, USA). qPCR (Hh signaling pathway and VDR) analysis of target genes was performed on Step OnePlus (ABI) using the Taqman Gene Expression Assays: mouse ActB (Mm00607939_s1), mouse GLI1 (Mm00494645_ml), mouse PTCH1(Mm00436026_m1), and mouse CYP24A1 (Mm00487244_ml). Relative gene expression levels were computed via the ΔΔCt method. ActinB mRNA expression levels of all samples were normalized to DMSO control ActinB mRNA levels (vehicle; set at 1.00). […] The mRNA expression levels from drug-treated samples were compared to OHCs levels (Gli1, PTCH) and DMSO control (Cyp24A1).

[2] = test system: VDR signaling (Cyp24A1 mRNA) in C3H10T1/2 cells; assay: Cyp24A1 mRNA up-regulation (qPCR) in C3H10T1/2 cells; assay type: cell-based, mouse; settings: 24 h, relative to DMSO (set to 1.0); for Cyp24A1 mRNA (fold up-regulation): 5 μM with OHCs 5 μM; for fold induction at 5 µM: Mus musculus, C3H 10T1/2, 5 μM with OHCs 5 μM
Procedure: as §1, §2, §3

recombinant VDR = biological target: T1, recombinant VDR (Homo sapiens, UniProt P11473); assay: VDR binding, fluorescence polarization-based competition assay (PolarScreen VDR Competitor Assay Red); settings: compounds evaluated at 100 μM
T1 construct: purchased Thermo Fisher Scientific
T1 sequence (P11473 1-427): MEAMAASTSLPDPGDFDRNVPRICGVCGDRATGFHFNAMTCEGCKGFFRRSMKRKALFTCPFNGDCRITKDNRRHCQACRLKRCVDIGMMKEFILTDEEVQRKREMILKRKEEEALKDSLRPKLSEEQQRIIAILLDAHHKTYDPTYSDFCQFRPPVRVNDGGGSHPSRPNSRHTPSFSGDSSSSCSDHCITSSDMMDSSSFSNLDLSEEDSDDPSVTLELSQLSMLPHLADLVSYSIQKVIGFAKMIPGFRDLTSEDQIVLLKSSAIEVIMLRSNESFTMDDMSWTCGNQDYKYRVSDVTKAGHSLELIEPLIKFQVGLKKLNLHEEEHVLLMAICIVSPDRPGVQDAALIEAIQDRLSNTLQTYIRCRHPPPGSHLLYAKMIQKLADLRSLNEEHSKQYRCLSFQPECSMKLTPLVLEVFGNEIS
Procedure: as §1
VDR binding assay was performed using a PolarScreen VDR Competitor Assay Red kit (Thermo Fisher Scientific, Carlsbad, CA, USA) per the manufacturer’s instructions. Compounds were evaluated at 100 μM in 2.5% final DMSO in triplicate. Calcitriol is utilized as a positive control for VDR binding.

[3] = test system: Hh signaling pathway (Ptch mRNA) in C3H10T1/2 cells; assay: Ptch mRNA down-regulation (qPCR) in C3H10T1/2 cells; assay type: cell-based; settings: Mus musculus, C3H 10T1/2; C3H10T1/2 cells; mean ± SEM; read-out: Ptch IC50
Procedure: (§4) RNA isolation in C3H10T1/2 cells was performed in 24-well plates (50,000 cells plated; TRIZOL Reagent); in ASZ001, cells were done in 35 mm dishes (300,000 cells plated; TRIZOL Reagent). cDNA synthesis was performed utilizing the SweScript All-in-One RT SuperMix Kit (Servicebio, Wuhan, China) per the manufacturer’s instructions on a BioRad S1000 Thermal Cycler (Hercules, CA, USA). qPCR (Hh signaling pathway and VDR) analysis of target genes was performed on Step OnePlus (ABI) using the Taqman Gene Expression Assays [18, 29]: mouse ActB (Mm00607939_s1), mouse GLI1 (Mm00494645_ml), mouse PTCH1(Mm00436026_m1), and mouse CYP24A1 (Mm00487244_ml). Relative gene expression levels were computed via the ΔΔCt method. ActinB mRNA expression levels of all samples were normalized to DMSO control ActinB mRNA levels (vehicle; set at 1.00). […] The mRNA expression levels from drug-treated samples were compared to OHCs levels (Gli1, PTCH) and DMSO control (Cyp24A1).

[4] = test system: Hh signaling pathway (Gli1 mRNA) in ASZ001 cells; assay: Gli1 mRNA down-regulation (qPCR) in ASZ001 cells; assay type: cell-based; settings: Mus musculus; ASZ001 cells; mean ± SEM; read-out: Gli1 IC50
Procedure: Mouse embryonic fibroblast cell line (C3H10T1/2, wild-type, VDR^−/−, SuFu^−/−), mouse keratinocyte cell line (ASZ001), and human embryonic kidney cell line (HEK293T) were purchased from China Center for Type Culture Collection (CCTCC; Wuhan, Hubei, China) and cultured under standard protocols [16]. […] The loss of Ptch in ASZ001 cells prevents Smo inhibition, so down-regulating Gli1 reflects direct Smo inhibition by the compound.
as §4

[5] = test system: VDR signaling (Cyp24A1 mRNA) in ASZ001 cells; assay: Cyp24A1 mRNA expression (qPCR) in ASZ001 cells; assay type: cell-based; settings: Mus musculus; ASZ001 cells; 5 μM, 24 h; DMSO set to 1.0; read-out: Cyp24A1 mRNA levels relative to DMSO
Procedure: as §4

[6] = test system: primary Ptch-CKO MB cells; assay: Anti-proliferation (MTS) in primary Ptch-CKO MB cells; assay type: cell-based; settings: Mus musculus, 48 h incubation, mean ± SEM
Procedure: Ptch-CKO MB cells, derived from a conditional Patched knockout mouse, lack Ptch-like ASZ001 cells. Consequently, the inhibitory effect of the compound on Ptch-CKO MB cells directly reflects its suppression of the canonical Hh signaling pathway. Cell viability was assessed by MTS proliferation assay kit (Promega, Madison, WI, USA) according to the manufacturer’s protocol. Culture conditions and experimental protocols to determine GI50 values in the primary murine Ptch-CKO MB cells were as previously described.

ASZ001 cells = assay: Anti-proliferation (MTS) in ASZ001 cells; assay type: cell-based; settings: Mus musculus, 48 h incubation, mean ± SEM

SMILES	Gli1 mRNA (%) [1]	mrna remaining at 5 µM [1]	Cyp24A1 mRNA (fold up-regulation) [2]	fold induction at 5 µM [2]	VDR Binding (recombinant VDR)	IC50 [1]	IC50 [3]	IC50 [4]	fold induction at 5 µM [5]	GI50 [6]	GI50 (ASZ001 cells)
CC(C)COC[C@@H](C)[C@H]1CC[C@H]2[C@@H](O)CCC[C@]12C [Compound 2a]	comparable to that of VD3	36.8 ± 3.6%	weak	1.6 ± 0.3	>100 µM	–	–	–	–	–	–
C[C@H](COCC(C)(C)O)[C@H]1CC[C@H]2[C@@H](O)CCC[C@]12C [Compound 2b]	comparable to that of VD3	42.7 ± 3.4%	weak	76.8 ± 6.3	>100 µM	–	–	–	–	–	–
CC(C)COC[C@@H](C)[C@H]1CC[C@H]2[C@@H](OC(=O)c3ccccc3)CCC[C@]12C [Compound 3a]	–	56.8 ± 3.5%	–	35.7 ± 2.6	>100 µM	–	–	–	–	–	–
CC(C)COC[C@@H](C)[C@H]1CC[C@H]2[C@@H](OC(=O)c3ccc([N+](=O)[O-])cc3)CCC[C@]12C [Compound 3b]	–	74.2 ± 4.1%	–	24.6 ± 2.1	>100 µM	–	–	–	–	–	–
COc1ccc(C(=O)O[C@H]2CCC[C@]3(C)[C@@H]([C@H](C)COCC(C)C)CC[C@@H]23)cc1 [Compound 3c]	–	89.6 ± 4.3%	–	36.7 ± 2.9	>100 µM	–	–	–	–	–	–
COc1cccc(C(=O)O[C@H]2CCC[C@]3(C)[C@@H]([C@H](C)COCC(C)C)CC[C@@H]23)c1 [Compound 3d]	–	102 ± 8.4%	–	13.5 ± 1.1	>100 µM	–	–	–	–	–	–
CC(C)COC[C@@H](C)[C@H]1CC[C@H]2[C@@H](OC(=O)c3ccc(Cl)cc3)CCC[C@]12C [Compound 3e]	–	23.5 ± 2.7%	–	67.8 ± 4.8	>100 µM	–	–	–	–	–	–
CC(C)COC[C@@H](C)[C@H]1CC[C@H]2[C@@H](OC(=O)c3ccc(F)cc3)CCC[C@]12C [Compound 3f]	–	45.4 ± 3.1%	–	46.5 ± 3.4	>100 µM	–	–	–	–	–	–
CC(C)COC[C@@H](C)[C@H]1CC[C@H]2[C@@H](OC(=O)c3cc([N+](=O)[O-])cc([N+](=O)[O-])c3)CCC[C@]12C [Compound 3g]	–	32.1 ± 2.4%	–	9.8 ± 1.4	>100 µM	–	–	–	–	–	–
CC(C)COC[C@@H](C)[C@H]1CC[C@H]2[C@@H](OC(=O)c3cc(N)cc(N)c3)CCC[C@]12C [Compound 3h]	–	5.6 ± 0.9%	–	6.7 ± 0.8	>100 µM	3200 ± 300 nM	7.8 ± 0.6 µM	4.7 ± 0.4 µM	5.1 ± 0.3	> 10 µM	> 20 µM
CC(C)COC[C@@H](C)[C@H]1CC[C@H]2[C@@H](OC(=O)c3cccc(O)c3)CCC[C@]12C [Compound 3i]	–	6.1 ± 1.1%	–	13.8 ± 1.4	>100 µM	2300 ± 700 nM	5.6 ± 0.6 µM	5.2 ± 0.3 µM	2.3 ± 0.2	8.1 ± 1.1 µM	> 20 µM
CC(C)COC[C@@H](C)[C@H]1CC[C@H]2[C@@H](OC(=O)c3ccc(O)cc3)CCC[C@]12C [Compound 3k]	–	7.3 ± 1.9%	–	32.1 ± 3.2	>100 µM	3800 ± 400 nM	10.3 ± 1.1 µM	6.2 ± 1.1 µM	5.8 ± 0.3	> 10 µM	> 20 µM
C[C@H](COCC(C)(C)O)[C@H]1CC[C@H]2[C@@H](OC(=O)c3ccccc3)CCC[C@]12C [Compound 4a]	–	43.8 ± 3.6%	–	94.6 ± 12.7	>100 µM	–	–	–	–	–	–
C[C@H](COCC(C)(C)O)[C@H]1CC[C@H]2[C@@H](OC(=O)c3ccc([N+](=O)[O-])cc3)CCC[C@]12C [Compound 4b]	–	54.6 ± 3.8%	–	92.7 ± 15.9	>100 µM	–	–	–	–	–	–
COc1ccc(C(=O)O[C@H]2CCC[C@]3(C)[C@@H]([C@H](C)COCC(C)(C)O)CC[C@@H]23)cc1 [Compound 4c]	–	76.5 ± 7.5%	–	120 ± 18.6	>100 µM	–	–	–	–	–	–
COc1cccc(C(=O)O[C@H]2CCC[C@]3(C)[C@@H]([C@H](C)COCC(C)(C)O)CC[C@@H]23)c1 [Compound 4d]	–	62.3 ± 4.8%	–	86.8 ± 11.3	>100 µM	–	–	–	–	–	–
C[C@H](COCC(C)(C)O)[C@H]1CC[C@H]2[C@@H](OC(=O)c3ccc(Cl)cc3)CCC[C@]12C [Compound 4e]	–	26.1 ± 2.1%	–	105 ± 21.4	>100 µM	–	–	–	–	–	–
C[C@H](COCC(C)(C)O)[C@H]1CC[C@H]2[C@@H](OC(=O)c3cc([N+](=O)[O-])cc([N+](=O)[O-])c3)CCC[C@]12C [Compound 4f]	–	30.7 ± 2.5%	–	131 ± 19.7	>100 µM	–	–	–	–	–	–
COc1ccc(C(=O)O[C@H]2CCC[C@]3(C)[C@@H]([C@H](C)COCC(C)(C)O)CC[C@@H]23)cc1O [Compound 4g]	–	2.5 ± 0.5%	–	83.6 ± 15.6	>100 µM	2100 ± 200 nM	3.8 ± 0.4 µM	3.7 ± 0.7 µM	56.8 ± 5.1	3.4 ± 0.5 µM	7.8 ± 1.1 µM
C[C@H](COCC(C)(C)O)[C@H]1CC[C@H]2[C@@H](OC(=O)c3cccc(O)c3)CCC[C@]12C [Compound 4h]	–	3.8 ± 0.4%	–	87.4 ± 13.7	>100 µM	2800 ± 200 nM	5.7 ± 0.5 µM	4.1 ± 0.5 µM	60.3 ± 6.4	> 10 µM	> 20 µM
C[C@H](COCC(C)(C)O)[C@H]1CC[C@H]2[C@@H](OC(=O)c3ccc(O)cc3)CCC[C@]12C [Compound 4j]	–	4.6 ± 0.8%	–	127 ± 20.5	>100 µM	–	–	–	–	> 10 µM	> 20 µM
